Data published in the supplement of paper PMC10307832.

How the values were obtained:
Assay in all cases: relative viability (nuclei count vs DMSO), 5 days (fraction); higher = more cells survive
[1] = system: HCC-366
Procedure, shortened: (§1)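 Medians of duplicate plates are given as relative viability. That measure is the nuclei count in treated wells divided by the count in vehicle wells. Counts were taken on 4× images of lung cancer cell lines in 1536-well plates, 5 days after pin-tool dosing the day after seeding with one drug alone or a fixed anchor-drug dose plus five library-drug doses (not always all listed) in √10 steps.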

[2] = system: NCI-H1993
Procedure, shortened: as §1

[3] = system: ChaGo-K-1
Procedure, shortened: as §1

[4] = system: EMC-BAC-2
Procedure, shortened: as §1

[5] = system: NCI-H2126
Procedure, shortened: as §1

[6] = system: NCI-H2228
Procedure, shortened: as §1

[7] = system: LC-2-ad
Procedure, shortened: as §1

[8] = system: A-427
Procedure, shortened: as §1

[9] = system: NCI-H1944
Procedure, shortened: as §1

[10] = system: NCI-H838
Procedure, shortened: as §1

[11] = system: UMC-11
Procedure, shortened: as §1

[12] = system: COR-L23
Procedure, shortened: as §1

[13] = system: NCI-H23
Procedure, shortened: as §1

[14] = system: NCI-H2009
Procedure, shortened: as §1

[15] = system: NCI-H2405
Procedure, shortened: as §1

[16] = system: ABC-1
Procedure, shortened: as §1

[17] = system: HARA
Procedure, shortened: as §1

[18] = system: NCI-H1734
Procedure, shortened: as §1

[19] = system: NCI-H1793
Procedure, shortened: as §1

[20] = system: SK-LU-1
Procedure, shortened: as §1

[21] = system: HCC-15
Procedure, shortened: as §1

[22] = system: HCC-78
Procedure, shortened: as §1

[23] = system: NCI-H2023
Procedure, shortened: as §1

In the case of `C=C1C(=O)O[C@@H](CCCCCCCC)[C@@H]1C(=O)O` [C-75] + N=C(N)NC(=N)NCCc1ccccc1 [Phenformin] (partner 250 µM), the relative viability ([1]; first compound 0.08 µM) is reported as 0.586, the relative viability ([1]; first compound 0.253 µM) is reported as 0.634 and the relative viability ([1]; first compound 0.8 µM) is reported as 0.61. For the same molecule, the relative viability ([1]; first compound 8 µM) was 0.571, the relative viability ([2]; first compound 0.08 µM) was 0.528 and the relative viability ([2]; first compound 0.253 µM) was 0.574. It also gave a relative viability ([2]; first compound 0.8 µM) of 0.476, a relative viability ([2]; first compound 2.53 µM) of 0.46 and a relative viability ([2]; first compound 8 µM) of 0.506. For the same molecule, the relative viability ([3]; first compound 0.08 µM) was 0.461, the relative viability ([3]; first compound 0.253 µM) was 0.538 and the relative viability ([3]; first compound 0.8 µM) was 0.453. It also gave a relative viability ([3]; first compound 2.53 µM) of 0.414, a relative viability ([3]; first compound 8 µM) of 0.494 and a relative viability ([4]; first compound 0.08 µM) of 0.58. It also gave a relative viability ([4]; first compound 0.253 µM) of 0.478, a relative viability ([4]; first compound 0.8 µM) of 0.48 and a relative viability ([4]; first compound 2.53 µM) of 0.42. For the same molecule, the relative viability ([4]; first compound 8 µM) was 0.448, the relative viability ([5]; first compound 0.08 µM) was 0.505 and the relative viability ([5]; first compound 0.253 µM) was 0.558. For the same molecule, the relative viability ([5]; first compound 0.8 µM) was 0.501, the relative viability ([5]; first compound 2.53 µM) was 0.48 and the relative viability ([5]; first compound 8 µM) was 0.515. For the same molecule, the relative viability ([6]; first compound 0.08 µM) was 0.294, the relative viability ([6]; first compound 0.253 µM) was 0.304 and the relative viability ([6]; first compound 0.8 µM) was 0.33. It also gave a relative viability ([6]; first compound 2.53 µM) of 0.244, a relative viability ([6]; first compound 8 µM) of 0.277 and a relative viability ([7]; first compound 0.08 µM) of 0.561. It also gave a relative viability ([7]; first compound 0.253 µM) of 0.566, a relative viability ([7]; first compound 0.8 µM) of 0.544 and a relative viability ([7]; first compound 2.53 µM) of 0.483. The relative viability ([7]; first compound 8 µM) was 0.54, the relative viability ([8]; first compound 0.08 µM) was 0.361 and the relative viability ([8]; first compound 0.253 µM) was 0.342. For the same molecule, the relative viability ([8]; first compound 0.8 µM) was 0.33, the relative viability ([8]; first compound 2.53 µM) was 0.284 and the relative viability ([8]; first compound 8 µM) was 0.303. It also gave a relative viability ([9]; first compound 0.08 µM) of 0.21, a relative viability ([9]; first compound 0.253 µM) of 0.163 and a relative viability ([9]; first compound 0.8 µM) of 0.179. It also gave a relative viability ([9]; first compound 8 µM) of 0.187, a relative viability ([10]; first compound 0.08 µM) of 0.572 and a relative viability ([10]; first compound 0.8 µM) of 0.515. The relative viability ([10]; first compound 2.53 µM) was 0.453, the relative viability ([10]; first compound 8 µM) was 0.49 and the relative viability ([11]; first compound 0.08 µM) was 0.335. The relative viability ([11]; first compound 0.253 µM) was 0.346, the relative viability ([11]; first compound 0.8 µM) was 0.325 and the relative viability ([11]; first compound 2.53 µM) was 0.278. The relative viability ([11]; first compound 8 µM) was 0.272, the relative viability ([12]; first compound 0.08 µM) was 0.44 and the relative viability ([12]; first compound 0.253 µM) was 0.386. It also gave a relative viability ([12]; first compound 0.8 µM) of 0.41, a relative viability ([12]; first compound 2.53 µM) of 0.42 and a relative viability ([12]; first compound 8 µM) of 0.421. The relative viability ([13]; first compound 0.08 µM) was 0.775, the relative viability ([13]; first compound 0.253 µM) was 0.758 and the relative viability ([13]; first compound 0.8 µM) was 0.773. The relative viability ([13]; first compound 2.53 µM) was 0.582, the relative viability ([13]; first compound 8 µM) was 0.643 and the relative viability ([14]; first compound 0.08 µM) was 0.487. It also gave a relative viability ([14]; first compound 0.253 µM) of 0.534, a relative viability ([14]; first compound 0.8 µM) of 0.448 and a relative viability ([14]; first compound 2.53 µM) of 0.427. The relative viability ([14]; first compound 8 µM) was 0.422, the relative viability ([15]; first compound 0.08 µM) was 0.387 and the relative viability ([15]; first compound 0.253 µM) was 0.331. It also gave a relative viability ([15]; first compound 0.8 µM) of 0.405, a relative viability ([15]; first compound 2.53 µM) of 0.368 and a relative viability ([15]; first compound 8 µM) of 0.45. For the same molecule, the relative viability ([16]; first compound 0.08 µM) was 0.209, the relative viability ([16]; first compound 0.253 µM) was 0.289 and the relative viability ([16]; first compound 0.8 µM) was 0.231. The relative viability ([16]; first compound 2.53 µM) was 0.19, the relative viability ([16]; first compound 8 µM) was 0.199 and the relative viability ([17]; first compound 0.08 µM) was 0.46. For the same molecule, the relative viability ([17]; first compound 0.253 µM) was 0.487, the relative viability ([17]; first compound 0.8 µM) was 0.342 and the relative viability ([17]; first compound 2.53 µM) was 0.306. For the same molecule, the relative viability ([17]; first compound 8 µM) was 0.434, the relative viability ([18]; first compound 0.08 µM) was 0.413 and the relative viability ([18]; first compound 0.253 µM) was 0.427. For the same molecule, the relative viability ([18]; first compound 0.8 µM) was 0.356, the relative viability ([18]; first compound 2.53 µM) was 0.286 and the relative viability ([18]; first compound 8 µM) was 0.283. For the same molecule, the relative viability ([19]; first compound 0.08 µM) was 0.365, the relative viability ([19]; first compound 0.253 µM) was 0.362 and the relative viability ([19]; first compound 0.8 µM) was 0.287. The relative viability ([19]; first compound 2.53 µM) was 0.29, the relative viability ([19]; first compound 8 µM) was 0.486 and the relative viability ([20]; first compound 0.08 µM) was 0.52. It also gave a relative viability ([20]; first compound 0.253 µM) of 0.524, a relative viability ([20]; first compound 0.8 µM) of 0.515 and a relative viability ([20]; first compound 2.53 µM) of 0.425. The relative viability ([20]; first compound 8 µM) was 0.423, the relative viability ([21]; first compound 0.08 µM) was 0.489 and the relative viability ([21]; first compound 0.253 µM) was 0.469. It also gave a relative viability ([21]; first compound 0.8 µM) of 0.42, a relative viability ([21]; first compound 2.53 µM) of 0.377 and a relative viability ([21]; first compound 8 µM) of 0.446. The relative viability ([22]; first compound 0.08 µM) was 0.844, the relative viability ([22]; first compound 0.253 µM) was 0.849 and the relative viability ([22]; first compound 0.8 µM) was 0.544. The relative viability ([22]; first compound 2.53 µM) was 0.595, the relative viability ([22]; first compound 8 µM) was 0.625 and the relative viability ([23]; first compound 0.08 µM) was 0.394. For the same molecule, the relative viability ([23]; first compound 0.253 µM) was 0.502, the relative viability ([23]; first compound 0.8 µM) was 0.367 and the relative viability ([23]; first compound 2.53 µM) was 0.384. The relative viability ([23]; first compound 8 µM) was 0.372.
